Here are results for one substance from paper PMC3237054 (2011).

One assay concerns the target T1, LPA3 (hLPA3) (Homo sapiens, UniProt Q9UBY5).
T1 sequence (Q9UBY5 1-353): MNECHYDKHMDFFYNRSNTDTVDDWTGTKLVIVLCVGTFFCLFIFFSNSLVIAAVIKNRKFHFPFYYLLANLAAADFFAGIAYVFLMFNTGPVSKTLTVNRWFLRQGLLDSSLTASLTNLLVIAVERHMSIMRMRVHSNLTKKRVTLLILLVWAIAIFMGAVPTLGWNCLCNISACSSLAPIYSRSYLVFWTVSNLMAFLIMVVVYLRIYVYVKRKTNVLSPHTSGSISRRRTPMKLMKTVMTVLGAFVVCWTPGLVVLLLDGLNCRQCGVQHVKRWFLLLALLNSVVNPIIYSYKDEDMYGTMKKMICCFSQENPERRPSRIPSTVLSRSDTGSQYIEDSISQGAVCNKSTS
In kind it is biochemical. The conditions noted are these: read-out: Ki; cho cell membranes.

For the next assay, the target named is LPA1 (hLPA1) (Homo sapiens, UniProt Q92633). Format: biochemical. The conditions noted are these: read-out: Ki; cell membranes.
Sequence of LPA1 (hLPA1) (Q92633 whole entry): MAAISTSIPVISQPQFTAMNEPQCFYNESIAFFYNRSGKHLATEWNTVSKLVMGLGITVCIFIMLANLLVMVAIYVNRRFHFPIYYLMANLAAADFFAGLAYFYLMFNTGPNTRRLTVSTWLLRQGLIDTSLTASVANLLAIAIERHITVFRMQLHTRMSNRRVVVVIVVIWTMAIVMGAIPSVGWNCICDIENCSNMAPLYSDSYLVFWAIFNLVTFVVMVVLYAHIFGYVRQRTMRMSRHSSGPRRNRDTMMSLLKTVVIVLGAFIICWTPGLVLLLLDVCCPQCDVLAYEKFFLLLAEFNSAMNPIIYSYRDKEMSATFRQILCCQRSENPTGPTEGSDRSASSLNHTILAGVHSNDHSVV

As for VPC51299 [6.1], the Kb was 512 nM on LPA3 (hLPA3) and 143 nM at LPA1 (hLPA1).
